How the values were obtained:
cultured chondrocytes = conditions: cited from earlier work
hexosaminidase = conditions: read-out: Ki against hexosaminidase; cited from earlier work
[1] = system: IL-1β-infused rabbit knee joint (tibial plateau cartilage); test: IL-1β-induced sGAG loss in rabbit knee cartilage, continuous intra-articular infusion; format: in vivo
Method: Female New Zealand White rabbits, 3.0-3.5 kg, were used and were randomly allocated into groups of 8 rabbits. Under aseptic conditions, 2 ml Alzet osmotic pumps (delivery flow rate: 10 μl/h, (Alzet 2ML1, Alza, USA)) were filled with IL-1β (1000 U/ml; R&D Systems, USA). Separate 2 ml Alzet pumps were filled with 30 mM of the hexosaminidase inhibitor (2R,3R,4R,5R)-N-methyl-(2-acetamidomethyl-3,4dihydroxy-5-hydroxymethyl)-pyrrolidine, also known as OPT-66, or with saline. The Alzet pumps were implanted subcutaneously in the lower abdomen of rabbits, and were connected by a polyethylene tubing (ID: 0.025 in) threaded subcutaneously to the left knee joint with their tips resting in the synovial space. The untreated contralateral knees of all animals served as negative controls. IL-1β and (2R,3R,4R,5R)-N-methyl-(2-acetamidomethyl-3,4-diydroxy-5-hydroxymethyl)-pyrrolidine were infused intra-articularly for 7 days. Immediately before surgery, and for 3 consecutive days thereafter, Marbocyl, 6 mg/kg/day, is administered (i.m.) to prevent infection. Animals were harvested on day 7. […]
Blyscan dye (Biocolor, USA) was added to each tube and vortexed. […] The absorbance of the sample was then observed at 656 nm using a spectrophotometer. […] The absorbance of the blank was subtracted from each sample. Results are expressed as micrograms of sGAG recovered per milligram wet weight of cartilage tissue.

[2] = system: rabbit knee after ACL transection; test: ACL transection (ACLT) osteoarthritis model in the rabbit knee, continuous intra-articular infusion; format: in vivo; conditions: 8 weeks after ACLT; for chondro-degenerative pathology to the knee joint: 30 mM via Alzet pump 2.5 μl/hour intra-articular, vs saline-treated animals
Method: The model used in this study is the transection of the anterior cruciate ligament (ACL) in the rabbit knee. ACL transection (ACLT) causes joint instability and subsequent development of degradative and osteoarthritis-like changes.
Female New Zealand White rabbits, 3.0-3.5 kg, were used and were randomly allocated into groups of 8 rabbits. Group A was the saline-treated control group; Group B was treated with 30 mM of the hexosaminidase inhibitor (2R,3R,4R,5R)-N-methyl-(2-acetamidomethyl-3,4-dihydroxy-5-hydroxymethyl)-pyrrolidine, which is also known as OPT-66. All the compounds were delivered by a 2ml Alzet osmotic pump (Alzet 2ML4, Alza, USA). The delivery rate from the pump was 2.5 μl/hour. All rabbits received ACLT surgery on the right knee.
All rabbits were anesthetized by an intramuscular injection of ketamine (35 mg/kg) and acepromazine (2.5 mg/kg). Knees were shaved and disinfected with Antibex (Vetoquinol S.A.) solution. A medial parapatellar incision was made on the skin and a medial arthrotomy was performed. The patella was dislocated laterally and the knee was placed in full flexion. The ACL was visualized and transected with a #15 blade. Complete transection was confirmed by a manual anterior drawer test. The joint was irrigated with sterile saline then closed. Before the closure of knee joint, an Alzet pump prefilled with compounds (either with saline or with the hexosaminidase inhibitor (2R,3R,4R,5R)-N-methyl-(2-acetamidomethyl-3,4-dihydroxy-5-hydroxymethyl)-pyrrolidine, also known as OPT-66, was implanted subcutaneously in the lower right abdomen of rabbits. The pump was connected by polyethylene tubing (ID: 0.58 mm), which was inserted into the right knee joint with its tip resting in the synovial space. The joint capsule was closed with a running suture and the tubing connecting the pump was also fixed into the tissue. The skin was closed with interrupted sutures. The Alzet pumps were replaced with fresh units at the end of the fourth week after the operation.
The animals were sacrificed eight (8) weeks after ACLT. The gross morphological changes of both knees, including joint swelling and joint fluid, were evaluated.
The grading of the joint swelling is as following: 0 (normal); 1 (mild), inflammation and/or proliferation of the joint capsule; 2 (moderate), thickening of joint capsule and/or inflammation of the synovium; 3 (severe) abundant inflammation of the synovium, swelling of the menisci or ligaments (anterior or posterior cruciate ligaments).

## CC(=O)NCC1C(O)[C@H](O)C(CO)N1C (stereo partly drawn) [OPT-66, (2R,3R,4R,5R)-N-methyl-(2-acetamidomethyl-3,4-dihydroxy-5-hydroxymethyl)-pyrrolidine]
Cultured chondrocytes
  cytokine-induced loss of GAGs: preventing cytokine-induced loss of GAGs
hexosaminidase
  Ki: 24 nM
[1]; IL-1β 1000 U/ml plus 30 mM inhibitor infused intra-articularly for 7 days (FIG. 5)
  amount of recoverable sGAG per wet weight of left tibial plateau cartilage: approximately 41 μg/mg
[1]; IL-1β plus 30 mM inhibitor infused intra-articularly for 7 days
  increase of recoverable sGAG over saline-treated knees: 24%
[2]
  chondro-degenerative pathology to the knee joint: consistently less chondro-degenerative pathology
[2]; listed as specific hexosaminidase inhibitor
  chondro-degenerative pathology to the knee joint: chondroprotective benefit
[2]; 30 mM via Alzet pump, vs saline-treated animals (FIG. 1)
  severity of femur lesion scores: statistically significant decrease
[2]; 30 mM via Alzet pump, vs saline-treated animals (FIG. 2)
  severity of tibia lesion scores: statistically significant decrease
[2]; 30 mM via Alzet pump, vs saline-treated animals (FIG. 3)
  joint swelling grading: trend towards decreased joint-swelling
[2]; 30 mM via Alzet pump, vs saline-treated animals (FIG. 4)
  synovial (joint) fluid grading: normal levels of fluid in the knee joint

Reference: patent US20070197471A1, “Treatment of degenerative cartilage conditions in a mammal with Glycosidasc Inhibitors” (Optimer Pharmaceuticals, Inc., priority 2004, published 2007)
